In brackets after ≈: the same amount, converted by molar mass.
How the values were obtained:
platelet aggregation = conditions: in vitro; Ninomiya et al., 1980; cited from earlier work
glutathione = conditions: Sharma et al., 1994; cited from earlier work
[1] = system: cervical cancer cell line Hela; assay: Anticancer activity, SRB growth assay in cervical cancer cell line Hela (3 days); assay type: cell-based; conditions: Homo sapiens, 72 h, 2,500 cells/well, 570 nm, 0.008-1 μg/ml tested
Description: (§1) These assays are commonly used by those skilled in the art and are accepted as indicative of anticancer activity in mammals. The anticancer activities of dithiolopyrrolones have been determined in cell cultures of human colon cancer cell line HT-29, breast cancer cell line MCF-7 and cervical cancer cell line Hela. The procedure was carried out using the method described by Skehan et al. (1990). Briefly, cancer cells were grown in RPMI-1640 medium with glutamine and 10% fetal calf serum, and were harvested from exponential-phase maintenance cultures. The harvested cells were counted and dispensed into replicate 96-well culture plates in 180 μl volumes for each well with a cell density of 2,500 cells/well. The cells were allowed to settle for about 4 hours at 37° C. Then 20 μl of medium containing the test dithiolopyrrolone was added into each well, resulting in a final test compound concentration between 0.008-1 μg/ml. The test plates were then incubated at 37° C. The test was terminated 3 days after incubation by adding to each well 50 μl of cold 50% trichloroacetic acid. The cells were fixed for an hour at 4° C. and then washed five times with tap water. The washed plates were air-dried and stained for 30 minutes with 0.4% (wt/vol) sulforhodamine B (SRB) which was dissolved in 1% acetic acid. At the end of the staining period, the SRB was removed and plates were quickly rinsed, five times with 1 % acetic acid. After being rinsed, the plates were air-dried and 100 μl of 10 mM tris base (pH 10.5) were added to each well to solubilize the dye bound to the cells. The plates were placed on a gyratory shaker and shaken (100 rpm) for 10 minutes. Finally, the plates were read in a microtiter plate reader at 570 nm.

[2] = system: ornithin decarboxylase (ODC); conditions: Sharma et al., 1994; cited from earlier work
[3] = system: human colon cancer cell line HT-29; assay: Anticancer activity, SRB growth assay in human colon cancer cell line HT-29 (3 days); assay type: cell-based; conditions: HT-29, 72 h, HT29, 2,500 cells/well, 570 nm, 0.008-1 μg/ml tested
Description: as §1, with “At the end of the staining period, the SRB was removed and plates were quickly rinsed, five times with 1 % acetic acid. After being rinsed, the plates were air-dried and 100 μl of 10 mM tris base (pH 10.5) were added to each well to solubilize the dye bound to the cells. The plates were placed on a gyratory shaker and shaken (100 rpm) for 10 minutes.” left out

[4] = system: breast cancer cell line MCF-7; assay: Anticancer activity, SRB growth assay in breast cancer cell line MCF-7 (3 days); assay type: cell-based; conditions: Homo sapiens, MCF7, 72 h, 2,500 cells/well, 570 nm, 0.008-1 μg/ml tested
Description: as §1, with “At the end of the staining period, the SRB was removed and plates were quickly rinsed, five times with 1 % acetic acid. After being rinsed, the plates were air-dried and 100 μl of 10 mM tris base (pH 10.5) were added to each well to solubilize the dye bound to the cells. The plates were placed on a gyratory shaker and shaken (100 rpm) for 10 minutes.” left out

mammary cells = mammary cells exposed to carcinogens; Menta and Moon, 1991; Arnold et al., 1995; cited from earlier work
membrane = conditions: Ninomiya et al., 1980; cited from earlier work
RNA polymerase = conditions: Jimenez et al., 1973, Tipper; cited from earlier work

IC50 [1]	Compound	inhibition of platelet aggregation (in words) (platelet aggregation)	reduction of glutathione (in words) (glutathione)	inhibition of ODC (in words) [2]	IC50 [3]	IC50 [4]	inhibition of promotion of carcinogenesis-associated activities (in words) (mammary cells)	membrane stabilization activity (in words) (membrane)	inhibition of RNA polymerase synthesis (in words) (RNA polymerase)
0.13 µg/mL (≈ 0.457 µM)	CCCCCC(=O)Nc1c2sscc-2n(C)c1=O [XN1, N-(4,5-dihydro-4-methyl-5-oxo-1,2-dithiolo[4,3-b]pyrrol-6-yl)hexanoamide]								
0.09 µg/mL (≈ 0.316 µM)	CC(C)CCCC(=O)Nc1c2sscc-2[nH]c1=O [XN3, N-(4,5-dihydro-5-oxo-1,2-dithiolo[4,3-b]pyrrol-6-yl)5-methylhexanoamide]								

Compound	IC50 [1]	inhibition of platelet aggregation (in words) (platelet aggregation)	reduction of glutathione (in words) (glutathione)	inhibition of ODC (in words) [2]	IC50 [3]	IC50 [4]	inhibition of promotion of carcinogenesis-associated activities (in words) (mammary cells)	membrane stabilization activity (in words) (membrane)	inhibition of RNA polymerase synthesis (in words) (RNA polymerase)
CC(=O)Nc1c2sscc-2n(C)c1=O [XN0, N-(4,5-dihydro-4-methyl-5-oxo-1,2-dithiolo[4,3-b]pyrrol-6-yl)acetamide]	0.07 µg/mL (≈ 0.307 µM)	inhibits platelet aggregation in vitro	induces the reduction of glutathione	inhibits OCD	0.03 µg/mL (≈ 0.131 µM)	0.08 µg/mL (≈ 0.35 µM)	inhibits the promotion of several other activities possibly associated with the occurrence of carcinogenesis in mammary cells	has membrane stabilization activity	inhibits RNA polymerase synthesis
